Measured values published in the NIST ThermoML archive (doi:10.1016/j.tca.2015.10.015).
± gives the expanded uncertainty stated by the source.

Tests used:
[1] = Molar enthalpy of transition or fusion; settings: Crystal; DSC
[2] = Crystal; DTA

CCCCCCCCCCCCOC(=O)/C=C\C(=O)O [maleic acid monododecyl ester]
Molar enthalpy of transition or fusion [1]: 12.4 ± 0.335 kcal/mol | Normal melting temperature [2]: 51.30 ± 4 °C

CCCCCCCCCCCCCCCCCCCCCCOC(=O)/C=C\C(=O)O [maleic acid monodocosyl ester]
Molar enthalpy of transition or fusion [1]: 20.8 ± 0.55 kcal/mol | Normal melting temperature [2]: 82.00 ± 5 °C

CCCCCCCCCCCCCCCCOC(=O)/C=C\C(=O)O [maleic acid monohexadecyl ester]
Molar enthalpy of transition or fusion [1]: 17.1 ± 0.454 kcal/mol | Normal melting temperature [2]: 71.80 ± 3 °C

CCCCCCCCOC(=O)/C=C\C(=O)O [maleic acid monooctyl ester]
Molar enthalpy of transition or fusion [1]: 7.93 ± 0.215 kcal/mol | Normal melting temperature [2]: 31.10 ± 3 °C

CCCCCCCCCCCCCCCCCCCCCCOC(=O)CCC(=O)O [succinic acid monodocosyl ester]
Molar enthalpy of transition or fusion [1]: 22.2 ± 0.574 kcal/mol | Normal melting temperature [2]: 73.60 ± 1.1 °C

CCCCCCCCOC(=O)CCC(=O)O [succinic acid monooctyl ester]
Molar enthalpy of transition or fusion [1]: 9.99 ± 0.263 kcal/mol | Normal melting temperature [2]: 36.50 ± 1.1 °C

CCCCCCCCCCCCOC(=O)CCC(=O)O [butanedioic acid, monododecyl ester]
Molar enthalpy of transition or fusion [1]: 12.7 ± 0.335 kcal/mol | Normal melting temperature [2]: 45.80 ± 2.1 °C

CCCCCCCCCCCCCCCCOC(=O)CCC(=O)O [succinic acid monohexadecyl ester]
Molar enthalpy of transition or fusion [1]: 15.8 ± 0.43 kcal/mol | Normal melting temperature [2]: 64.20 ± 1.1 °C
